Reference: patent publication US4228292A, “N-Substituted benzothiazolines and benzoxazolines and their use as herbicides and plant growth regulants” (Monsanto Company, priority 1978, dated 1980)

How the values were obtained:
Sugar Beet = test: post-emergent herbicidal test; type: in vivo; conditions: M; further: ranges in brackets are in %
In short: (§1)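 Read-out is a post-emergent herbicidal rating, recorded roughly two or four weeks after spraying. Plants aged two or three weeks receive the compound as a surfactant-containing solution or wettable powder suspension at the chosen rate, then stay in a greenhouse.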

Sorghum = test: post-emergent herbicidal test; type: in vivo; conditions: P; further: ranges in brackets are in %
In short: as §1

Hemp Sesbania = test: post-emergent herbicidal test; type: in vivo; conditions: R; further: ranges in brackets are in %
In short: as §1

Wild Buckwheat = test: post-emergent herbicidal test; type: in vivo; conditions: Q; further: ranges in brackets are in %
In short: as §1

Wheat = test: post-emergent herbicidal test; type: in vivo; conditions: N; further: ranges in brackets are in %
In short: as §1

Panicum Spp = test: post-emergent herbicidal test; type: in vivo; conditions: S; further: ranges in brackets are in %
In short: as §1

Rice = test: post-emergent herbicidal test; type: in vivo; conditions: O; further: ranges in brackets are in %
In short: as §1

Crabgrass = test: post-emergent herbicidal test; type: in vivo; conditions: T; further: ranges in brackets are in %
In short: as §1

Soybean = test: post-emergent herbicidal test; type: in vivo; conditions: L; further: ranges in brackets are in %
In short: as §1

soybean plants = test: plant growth regulating activity on soybean plants; type: in vivo, variety Williams; conditions: 2.8 kg/h
Protocol: A number of soybean plants, variety Williams, were grown from seeds in plastic pots in the greenhouse for a period of one week at which time the plants are thinned to one plant per pot. When the second trifoliate leaf (three weeks) was fully expanded, the plants were treated with a solution of the active ingredient in acetone and water. Aqueous Tween 20 was used as a surfactant.
When the fifth trifoliate leaf (four to five weeks) was fully expanded, the treated plants were compared with the non-treated control plants and the observations recorded.

COC(=N)Cn1c(=O)sc2ccc(Cl)cc21 [Compound 27]
post-emergent herbicidal rating (Sugar Beet; 0.28 kg/h, 2 WAT): 1 (25-49) | post-emergent herbicidal rating (Sugar Beet; 1.12 kg/h, 4 WAT): 3 (75-99) | post-emergent herbicidal rating (Sugar Beet; 5.6 kg/h, 4 WAT): 3 (75-99) | post-emergent herbicidal rating (Sorghum; 0.28 kg/h, 2 WAT): 0 (0-24) | post-emergent herbicidal rating (Sorghum; 1.12 kg/h, 4 WAT): 0 (0-24) | post-emergent herbicidal rating (Sorghum; 5.6 kg/h, 4 WAT): 0 (0-24) | post-emergent herbicidal rating (Hemp Sesbania; 0.28 kg/h, 2 WAT): 0 (0-24) | post-emergent herbicidal rating (Hemp Sesbania; 1.12 kg/h, 4 WAT): 2 (50-74) | post-emergent herbicidal rating (Hemp Sesbania; 5.6 kg/h, 4 WAT): 4 (100) | post-emergent herbicidal rating (Wild Buckwheat; 0.28 kg/h, 2 WAT): 0 (0-24) | post-emergent herbicidal rating (Wild Buckwheat; 1.12 kg/h, 4 WAT): 3 (75-99) | post-emergent herbicidal rating (Wild Buckwheat; 5.6 kg/h, 4 WAT): 4 (100) | post-emergent herbicidal rating (Wheat; 0.28 kg/h, 2 WAT): 0 (0-24) | post-emergent herbicidal rating (Wheat; 1.12 kg/h, 4 WAT): 0 (0-24) | post-emergent herbicidal rating (Wheat; 5.6 kg/h, 4 WAT): 1 (25-49) | post-emergent herbicidal rating (Panicum Spp; 0.28 kg/h, 2 WAT): 0 (0-24) | post-emergent herbicidal rating (Panicum Spp; 1.12 kg/h, 4 WAT): 0 (0-24) | post-emergent herbicidal rating (Panicum Spp; 5.6 kg/h, 4 WAT): 0 (0-24) | post-emergent herbicidal rating (Rice; 0.28 kg/h, 2 WAT): 0 (0-24) | post-emergent herbicidal rating (Rice; 1.12 kg/h, 4 WAT): 0 (0-24) | post-emergent herbicidal rating (Rice; 5.6 kg/h, 4 WAT): 0 (0-24) | post-emergent herbicidal rating (Crabgrass; 0.28 kg/h, 2 WAT): 0 (0-24) | post-emergent herbicidal rating (Crabgrass; 1.12 kg/h, 4 WAT): 0 (0-24) | post-emergent herbicidal rating (Crabgrass; 5.6 kg/h, 4 WAT): 0 (0-24) | post-emergent herbicidal rating (Soybean; 0.28 kg/h, 2 WAT): 1 (25-49) | post-emergent herbicidal rating (Soybean; 1.12 kg/h, 4 WAT): 2 (50-74) | post-emergent herbicidal rating (Soybean; 5.6 kg/h, 4 WAT): 3 (75-99) | plant growth regulant observations (soybean plants): Plants died.
